Test results from patent publication US4275067A, “Decarboxyclavulanic acid thio ethers, their preparation and use” (Beecham Group Limited, priority 1977, dated 1981).
≈ marks a conversion by molar mass, not a printed value. Like-named read-outs stand apart in the source and are kept apart here. Values belong to the compound of their own block, whether it stands above or below them.

Assays:
[1] = target: T1, β-lactamase (Staph. aureus Russell) (Staphylococcus aureus, UniProt P00807); test: β-lactamase inhibition; format: biochemical; details: β-lactamase from Staph. aureus Russell; read-out: I50 (converted)
T1 construct: Source of β-lactamase; endogenous in cells; host or cells: Staph. aureus Russell
Method: (§1) I50 values were determined using the process described in Belgian Pat. No. 827,926.

[2] = target: T2, β-lactamase (Ps. aeruginosa Dalgleish) (Pseudomonas aeruginosa, UniProt P16897); test: β-lactamase inhibition; format: biochemical; details: β-lactamase from Ps. aeruginosa Dalgleish; read-out: I50 (converted)
T2 construct: Source of β-lactamase; endogenous in cells; host or cells: Ps. aeruginosa Dalgleish
T2 sequence (P16897 18-288): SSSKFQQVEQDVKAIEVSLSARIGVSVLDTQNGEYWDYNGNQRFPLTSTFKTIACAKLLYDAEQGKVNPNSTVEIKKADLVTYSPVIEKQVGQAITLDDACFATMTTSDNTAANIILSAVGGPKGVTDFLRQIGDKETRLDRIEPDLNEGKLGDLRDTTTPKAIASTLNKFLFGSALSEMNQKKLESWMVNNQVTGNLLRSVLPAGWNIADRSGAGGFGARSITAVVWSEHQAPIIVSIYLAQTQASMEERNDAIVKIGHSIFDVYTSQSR
Method: as §1

[3] = target: β-lactamase (Proteus mirabilis C 889); test: β-lactamase inhibition; format: biochemical; details: β-lactamase from Proteus mirabilis C 889
Method: as §1

[4] = target: T3, β-lactamase (E. coli JT 4) (Escherichia coli, UniProt P62593); test: β-lactamase inhibition; format: biochemical; details: β-lactamase from E. coli JT 4; read-out: I50 (converted)
T3 construct: Source of β-lactamase; endogenous in cells; host or cells: E. coli JT 4
T3 sequence (P62593 24-286 limits assumed): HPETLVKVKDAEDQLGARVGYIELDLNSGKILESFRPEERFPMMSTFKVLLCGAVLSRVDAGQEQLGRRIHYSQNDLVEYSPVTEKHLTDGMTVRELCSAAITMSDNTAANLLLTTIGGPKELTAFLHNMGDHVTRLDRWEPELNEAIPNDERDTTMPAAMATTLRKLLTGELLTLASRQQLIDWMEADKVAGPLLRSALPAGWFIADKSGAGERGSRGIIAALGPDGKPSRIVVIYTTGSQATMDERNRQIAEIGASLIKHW
Method: as §1

[5] = target: β-lactamase (Pseudomonas aeruginosa A); test: β-lactamase inhibition; format: biochemical; details: β-lactamase from Pseudomonas aeruginosa A
Method: as §1

[6] = target: T4, β-lactamase (Enterobacter cloacae P 99) (Enterobacter cloacae, UniProt P05364); test: β-lactamase inhibition; format: biochemical; details: β-lactamase from Enterobacter cloacae P 99; read-out: I50 (converted)
T4 construct: Source of β-lactamase; endogenous in cells; host or cells: Enterobacter cloacae P 99
T4 sequence (P05364 21-381): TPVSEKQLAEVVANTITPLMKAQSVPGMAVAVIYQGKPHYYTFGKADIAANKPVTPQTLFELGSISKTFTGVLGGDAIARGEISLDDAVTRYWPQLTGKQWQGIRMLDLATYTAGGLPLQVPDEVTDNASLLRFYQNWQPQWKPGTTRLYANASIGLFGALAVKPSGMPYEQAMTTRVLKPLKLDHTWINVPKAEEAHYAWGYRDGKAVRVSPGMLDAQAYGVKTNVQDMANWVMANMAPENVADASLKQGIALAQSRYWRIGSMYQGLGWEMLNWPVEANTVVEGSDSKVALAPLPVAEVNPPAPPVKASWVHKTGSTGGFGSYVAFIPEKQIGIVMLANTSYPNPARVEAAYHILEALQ
Method: as §1

[7] = tested on: Staph. aureus Russell and Klebsiella aerogenes E70; test: Antibacterial synergy when combined with ampicillin (overall statement); format: cell-based
Saccharomyces cerevisiae = test: Anti-fungal activity, microtitre method; format: cell-based; details: glucosepeptone broth
Text: (§2) The anti-fungal activity of the compound of Example 7 was investigated using a microtitre method, with glucosepeptone broth at 1/50 and 1/500 final dilutions of inoculum. The organisms used were Candida albicans and Saccharomyces cerevisiae. The minimum inhibitory concentrations (MIC) are shown below.

Candida albicans = test: Anti-fungal activity, microtitre method; format: cell-based; details: glucosepeptone broth
Text: as §2

Staph. aureus Russell = test: Antibacterial synergy with ampicillin; format: cell-based; details: ampicillin without inhibitor

SMILES: O=C1C[C@H]2O/C(=C\CSc3ccccc3)CN12 [Example 1, (Z, 5R)-3-(2-Phenylthioethylidene)-4-oxa-1-azabicyclo [3.2.0]heptan-7-one]
IC50 [1]: 1010 nM | IC50 [2]: 2430 nM | I50 [3]: 4.4 µg/mL | IC50 [4]: 1460 nM | I50 [5]: 2.2 µg/mL | IC50 [6]: 5340 nM | antibacterial synergy [7]: active as antibacterial synergists

MIC (Saccharomyces cerevisiae; final dilution of inoculum 1/50, read-out: minimum inhibitory concentration (MIC)): > 100 µg/mL | MIC (Saccharomyces cerevisiae; final dilution of inoculum 1/500, read-out: minimum inhibitory concentration (MIC)): 100 µg/mL (≈ 389 µM) | MIC (Candida albicans; Candida albicans, final dilution of inoculum 1/50, read-out: minimum inhibitory concentration (MIC)): 12.5 µg/mL (≈ 48.6 µM) | minimum inhibitory concentration (MIC) (Candida albicans; final dilution of inoculum 1/500): 12.5 µg/mL (≈ 48.6 µM)
SMILES: COC(=O)CCSC/C=C1/CN2C(=O)C[C@H]2O1 [Example 7, (Z)-(5R)-3-[2-(2-Methoxycarbonylethylthio)ethylidene]-4-oxa-1-azabicyclo[3.2.0]hetpan-7-one]

MIC for ampicillin (Staph. aureus Russell): 250 µg/mL
SMILES: CC1(C)S[C@@H]2[C@H](NC(=O)[C@H](N)c3ccccc3)C(=O)N2[C@H]1C(=O)O [ampicillin]
